Counter-ions that a name gives are not always drawn.
Tests used:
[1] = system: Long-Evans male rats; assay: Icv administration of compounds in food-deprived Long-Evans male rats, food intake; assay type: in vivo; details: Long-Evans male rats food deprived for 16 hours; I.C.V. injection in DMSO, 20 μl; 4 hours post-injection; vehicle 8.69 ± 0.53; * significantly different from vehicle, p < 0.05
Description: Protocol for Icv Administration of Compounds in Food-Deprived Long-Evans Male Rats
(§1) Adult male Long-Evans rats (approx. 275 g) were obtained from Charles River Laboratories (Wilmington, MA) and given one week to acclimate to the animal facility. Animals were housed individually and given ad-lib access to food and water. After acclimation, animals were anesthetized (75 mg/kg Sodium Nembutal) and implanted with 23 g cannulas (Plastics One, Roanoke, VA) into the right lateral cerebral ventricle. All animals were given at least 1 week post-operative recover before any experiment.
Animals were food deprived for 16 hours prior to injections. Intracerebroventricular injection of compounds was done in awake, unrestrained animals in a DMSO vehicle in a volume of 20 μl. Immediately following the injection, the animals were returned to their home cage and were provided with a pre-weighed portion of regular rat chow pellets. Total food consumed was measured at 2 and 4 hours post-injection.

[2] = system: pNPY induced feeding; assay: Icv administration of NPY antagonists against pNPY induced feeding in satiated Long-Evans male rats; assay type: in vivo; details: I.C.V. antagonist in DMSO 20 μl, about 15 min later 5 μl pNPY, high sucrose mash, 4 hours post-injection, vehicle 5.29 ± 0.97, * significantly different from vehicle, p < 0.05
Description: Protocol for Icv Administration of NPY Antagonists Against pNPY Induced Feeding in Satiated Long-Evans Male Rats
as §1
Approximately 16 hours prior to injection, animals were provided with access to 30 grams of a sucrose/condensed milk/rat chow mash along with their regular chow. Ninety minutes prior to injections, regular chow was removed from the cages and animals were provided with a fresh portion of the high sucrose mash. Intracerebroventricular injection of antagonist or vehicle was done in awake, unrestrained animals in a DMSO vehicle in a volume of 20 μl. Approximately 15 minutes after the administration of the antagonist or vehicle, animals were given a second 5 μl injection of either water or pNPY. After the second injection, the portion of high sucrose mash was weighed and total food consumed was measured at 2 and 4 hours post-injection.

[3] = system: Male BALB-C mice; assay: IP administration of compounds in fasted male BALB-C mice, 2 hr food intake; assay type: in vivo; details: Mus musculus; male BALB-C mice fasted 18-20 hr; 30 mg/kg (ip) in 2% tween; food given after 30 min, weighed 2 hr later; vs vehicle; read-out: inhibition of feeding (2 hr food intake)
Text: Protocol For IP Administration Of Compounds In Male BALB-C Mice.
Male BALB-C mice (20-25 g)were obtained from Charles Rivers (Wilmington, Mass.) and were given at least a one week acclimation period to Amgen's animal care facilities. Animals were housed 10/cage and were provided ad libitum food and water. For testing, mice were fasted for 18-20 hr (overnight) prior to the start of the experiment. On the day of the experiment, mice were removed from group housing and placed into individual cages (without food). Test compounds or vehicle was then administered via the intraperitoneal (i.p.) route of administration. Test compounds were suspended in a 2% tween solution; the 2% tween solution was used as the vehicle treatment (control group). Group sizes for each treatment were 6-8 animals. After 30 min, premeasured food was placed into the cages. Two hours later, the food was weighed again. The difference between 2 hr weight and the premeasured weight was taken as 2 hr food intake.

[4] = system: Long-Evans male rats; assay: IP administration of compounds in fasted Long-Evans male rats, 2 hr food intake; assay type: in vivo; details: Rattus norvegicus; male Long Evans rats fasted 18-20 hr; 30 mg/kg (ip) in 2% tween; food given after 30 min, weighed 2 hr later; vs vehicle; read-out: inhibition of feeding (2 hr food intake)
Description: Protocol for IP Administration of Compounds in Fasted Long-Evans Male Rats
Male Long Evans rats (85-100 g)were obtained from Harlan (Indianapolis, Ind.) and were given at least a one week acclimation period to Ambients animal care facilities. Animals were individually housed and were provided ad libitum food and water. For testing, rats were fasted for 18-20 hr (overnight) prior to the start of the experiment. On the test day, test compounds or vehicle was administered via the intraperitoneal (i.p.) route of administration. Test compounds were suspended in a 2% tween solution; the 2% tween solution was used as the vehicle treatment (control group). Group sizes for each treatment were 6-8 animals. After 30 min, premeasured food was placed into the cages. Two hours later, the food was weighed again. The difference between 2 hr weight and the premeasured weight was taken as 2 hr food intake.

[5] = system: OB/OB female mice; assay: Icv administration of compounds in ad-lib fed OB/OB female mice, food intake; assay type: in vivo; details: I.C.V. injection in 100% DMSO, 5 μl, 4 hours post-injection, vehicle 0.61 ± 0.10, * significantly different from vehicle, p < 0.05
Text: Protocol For Icv Administration of Compounds In Ad-Lib Fed OB/OB Female Mice.
Eight week old (approx. 50 g) OB/OB female mice were obtained from Jackson Laboratories (Bar Harbor, ME) and given one week to acclimate to the animal facility before the experiment. Animals were housed 10 per cage and were provided with food and water ad-lib. Immediately prior to injection, animals were removed from group housing and lightly anesthetized using 4% isofluorane vapor. Freehand intracerebroventricular (“icv”) injection of compounds was done in a 100% DMSO vehicle in a volume of 5 μl. Immediately following the injection, animals were placed in individual cages and were provided with a pre-weighed portion of regular chow pellets. Total amount of food consumed was measured at 1, 2, 4 and 24 hours post-injection.

| melting point | SMILES | 4 hr food intake (g ± S.E.M.) [1] | 4 hr food intake (g ± S.E.M.) [2] | inhibition in vivo at 30 mg/kg [3] [%] | inhibition in vivo at 30 mg/kg [4] [%] | 4 hr food intake (g ± S.E.M.) [5] |
| --- | --- | --- | --- | --- | --- | --- |
| 184 to 185 °C | CCN(CC)c1nc(C)nc2cc(-c3ccccc3)[nH]c12 [Example 1f, Diethyl(2-methyl-6-phenylpyrrolo[2,3-e]pyrimidin-4-yl)amine] | 5.13 ± 1.40* g |  |  |  |  |
| 285.4 to 286 °C (dec.) | Cl.c1ccc(-c2cc3nc(C4CC4)nc(N4CCCCC4)c3[nH]2)cc1 [Example 69c, 2-Cyclopropyl-6-phenyl-4-piperidylpyrrolo[3,2-d]pyrimidine Hydrochloride] |  |  | ≥ 10 | ≥ 10 |  |
| > 280 °C | Cc1nc(N2CCCCC2)c2[nH]c(-c3cccs3)cc2n1.Cl [Example 76c, 2-(2-Methyl-4-piperidylpyrrolo[4,5-d]pyrimidin-6-yl)thiophene Hydrochloride] |  |  | ≥ 10 | ≥ 10 |  |

Second part, the molecule before the results:

| SMILES | melting point | 4 hr food intake (g ± S.E.M.) [1] | 4 hr food intake (g ± S.E.M.) [2] | inhibition in vivo at 30 mg/kg [3] [%] | inhibition in vivo at 30 mg/kg [4] [%] | 4 hr food intake (g ± S.E.M.) [5] |
| --- | --- | --- | --- | --- | --- | --- |
| Cc1nc(N2CCc3ccccc3C2)c2[nH]c(-c3ccccc3)cc2n1 [Example 2] | 251 to 253 °C (dec.) |  | 3.35 ± 0.62* g |  |  |  |
| Cc1nc(N2CCCCC2)c2[nH]c(-c3ccccc3)cc2n1 [Example 35, 2-methyl-6-phenyl-4-(piperidinyl)pyrrolo[3,2-d]pyrimidine] |  |  |  | ≥ 10 | ≥ 10 | 0.29 ± 0.11* g |
| Cc1nc(N2CCCCC2)c2sc(-c3ccc(F)cc3)cc2n1 [Example 217, 6-(4-Fluorophenyl)-2-methyl-4-piperidylthiopheno[3,2-d]pyrimidine Hydrochloride Hydrate] |  |  |  | ≥ 10 | ≥ 10 |  |
| CCc1nc(N2CCCCC2)c2oc(-c3ccc(Cl)cc3)cc2n1 [Example 96, 6-(4-Chlorophenyl)-2-ethyl-4-piperidinylfurano[3,2-d]pyrimidine] | > 288 °C |  |  | ≥ 10 | ≥ 10 |  |
| Cc1nc(N2CCCCC2)c2sc(-c3ccc(Cl)cc3)cc2n1 [Example 33, 6-(4-Chlorophenyl)-2-methyl-4-piperidylthiopheno[3,2-d]pyrimidine Hydrochloride] |  |  |  | ≥ 10 | ≥ 10 |  |
| Cc1nc(N2CCCCC2)c2[nH]c(C(C)(C)C)cc2n1 [Example 97, 6-(tert-Butyl)-2-methyl-4-piperidylpyrrolo[3,2-d]pyrimidine Hydrochloride Hydrate] |  |  |  | ≥ 10 | ≥ 10 |  |

Reference: US6583154B1, “Compounds and methods which modulate feeding behavior and related diseases” (Amgen Inc., priority 1998, dated 2003)
